Reference: patent US6646137B1, “Non-peptide GnRH agents” (priority 1998, dated 2003)
Read-outs that look alike come from different tables or passages of the source. Each block holds one molecule with its values, some of them ahead of it.

Target: T1, human GnRH receptor (Homo sapiens, UniProt P30968)
T1 construct: The cDNA for the human GnRH receptor is cloned into the plasmid expression vector, pcDNA 3; expressed in transfected cells; host or cells: HEK 293 cells, stably transfected (pcDNA 3); membrane preparation
T1 sequence (P30968 1-328): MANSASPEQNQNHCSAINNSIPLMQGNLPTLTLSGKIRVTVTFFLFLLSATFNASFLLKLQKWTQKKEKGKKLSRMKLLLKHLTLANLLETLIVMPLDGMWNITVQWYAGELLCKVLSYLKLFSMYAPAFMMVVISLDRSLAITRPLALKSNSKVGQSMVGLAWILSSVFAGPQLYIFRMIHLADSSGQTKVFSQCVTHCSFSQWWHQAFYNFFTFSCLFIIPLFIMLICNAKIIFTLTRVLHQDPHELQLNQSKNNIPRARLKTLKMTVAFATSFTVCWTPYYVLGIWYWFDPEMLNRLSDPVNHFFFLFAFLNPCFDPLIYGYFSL
Test: GnRH receptor competitive radioligand binding assay (125I-GnRH-A, HEK 293 cell membranes)
Conditions: compound at 10 μM
Text: The cDNA for the human GnRH receptor is cloned into the plasmid expression vector, pcDNA 3 (In Vitrogen), and stably transfected in HEK 293 cells (a cell line developed by Dr. Stuart Sealfon, Mount Sinai Medical School, New York, N.Y.).
The human GnRH receptor (hGnRH) is cloned into pcDNA 3 (In Vitrogen), which provides high-level expression and a neomycin resistance marker. Lipofectamine (GIBCO BRL) is used to transfect HEK 293 cells with plasmid DNA. This method involves mixing the plasmid and reagent in serum-free medium, allowing DNA-liposome complexes to form, and overlaying cells with this solution. The HEK 293 cells are plated (seeded) on a 10-cm tissue culture dish at a density of 3×10^6 cells/dish the day before transfection. For each plate, 8 μg DNA plus 0.8 mL serum-free medium is mixed with 48 μL lipofectamine plus 0.8 mL serum-free medium, followed by incubation for 30 minutes at room temperature to allow DNA-liposome complexes to form. Serum-free medium is added to give a final volume of 6 mL/plate. The cells are rinsed twice with serum-free medium and overlayed with the DNA-liposome mixture. Five hours after transfection, an equal volume (6 mL) of medium containing 20% FBS (fetal bovine serum) is added. The cells are fed with fresh complete medium 18-24 hours after transfection. The cells are split 72 hours following transfection, at densities of 1:10 and 1:20. Stable tranformants are selected for by growth of the cells in antibiotic containing medium (G418, Sigma Chemical Company (also known as Geneticin)). Colonies are isolated and tested for receptor expression by radioligand binding and by measuring phosphoinositol turnover.
HEK 293 cells stably transfected with human GnRH receptors as described above are grown in MEM (minimal essential medium, available from Sigma Chemical Company) supplemented with 0.1% G418 (Sigma Chemical Company). Cells are homogenized in buffer A containing 50 mM Tris (pH 74.), 0.32M sucrose, 2 mM ethyleneglycol-bis(β-aminoethyl)-N,N,N′,N′-tetraacetic acid (EGTA), 1 mM phenylmethylsulfonyl fluoride (PMSF), 5 μg/mL aprotinen, 5 μg/mL Pepstatin A, and 1 μg/mL leupeptin. The homogenized cells are centrifuged at 4° C. at 20,000×g for 25 minutes, resuspended in buffer A, and recentrifuged at 4° C. at 20,000×g for an additional 25 minutes. Total membrane protein is determined with a BCA kit (Pierce, Rockford, Ill.). Membranes are stored at −70° C. at a final membrane protein concentration of 5 mg/mL.
The radioiodinated agonist analog of GnRH, [des-Gly^10, D-Ala^8]GnRH ethylamide (GnRH-A), is used as the labeled ligand. One μg of GnRH-A diluted in 0.1M acetic acid is added to an lodogen®-coated borosilicate glass tube pierce) containing 35 μL of 0.05M phosphate buffer (pH 7.4-7.6) and 1 mCi of Na[^125I]. The reaction mixture is vortexed and incubated for 1 minute at room temperature. After one minute, the mixture is vortexed again and allowed to incubate for an additional minute. Two mL of 0.5M acetic acid/1% BSA is added to the reaction tube, and the mixture is added to a C18 Sep-Pak cartridge. The cartridge is washed with subsequent washes of 5 mL H2O and 5 mL 0.5M acetic acid, and then eluted with 5×1 mL of 60% CH3CN/40% 0.5M acetic acid. The eluant is diluted with 3×volume of HPLC buffer A (0.1% TFA in H2O) and loaded onto a C18 column. The iodinated product is eluted over 20-25 minutes with a gradient of 25-100% CH3CN containing 0.1% TFA. The radioactive fractions (750 μL/fraction) are collected into clean polypropylene tubes containing 10 μL of 10% BSA. Fractions are assessed for biological activity by radioligand binding. Active fractions are utilized to screen the compounds for competitive binding assays.
HEK 293 cell membranes stably expressing hGnRHR (human GnRH receptors) are diluted to 0.5-1.0 mg/mL with assay buffer containing 50 mM HEPES (pH 7.4), 1 mM ethylenediarninetetraacetic acid (EDTA), 2.5 mM MgCl2, and 0.1% BSA. […]

[1] = average of 1st and 2nd test, read-out: Average % Remaining (percent of specific binding remaining)
[2] = crude compounds, 125I-GnRH-A, lower value = higher inhibition, read-out: % Remaining 1st Test (percent of specific binding remaining)
[3] = crude compounds, 125I-GnRH-A, lower value = higher inhibition, read-out: % Remaining 2nd Test (percent of specific binding remaining)

Structure (SMILES): Cc1cc2c(cc1CN(CC1CCC(CNC(=N)N)CC1)C(=O)C1CCCC1)C(C)(C)CCC2(C)C (stereo not drawn) [Compound 85]
remaining activity at 10 µM [1]: 51%
remaining activity at 10 µM [2]: 52%
remaining activity at 10 µM [3]: 50%

Structure (SMILES): CCOC(=O)C(=O)N(Cc1cc2c(cc1C)C(C)(C)CCC2(C)C)CC1CCC(CNC(=N)N)CC1 (stereo not drawn) [Compound 94]
remaining activity at 10 µM [1]: 57%
remaining activity at 10 µM [2]: 61%
remaining activity at 10 µM [3]: 52%

Structure (SMILES): COC(=O)CCCCCC(=O)N(Cc1cc2c(cc1C)C(C)(C)CCC2(C)C)CC1CCC(CNC(=N)N)CC1 (stereo not drawn) [Compound 100]
remaining activity at 10 µM [1]: 55%
remaining activity at 10 µM [2]: 52%
remaining activity at 10 µM [3]: 58%

Structure (SMILES): Cc1cc(C(=O)N(Cc2cc3c(cc2C)C(C)(C)CCC3(C)C)CC2CCC(CNC(=N)N)CC2)n(C(C)(C)C)n1 (stereo not drawn) [Compound 105]
remaining activity at 10 µM [1]: 56%
remaining activity at 10 µM [2]: 56%
remaining activity at 10 µM [3]: 56%

Structure (SMILES): CCCCC(CC)C(=O)N(Cc1cc2c(cc1C)C(C)(C)CCC2(C)C)CC1CCC(CNC(=N)N)CC1 (stereo not drawn) [Compound 117]
remaining activity at 10 µM [1]: 57%
remaining activity at 10 µM [2]: 59%
remaining activity at 10 µM [3]: 54%

Structure (SMILES): Cc1cc2c(cc1CN(CC1CCC(CNC(=N)N)CC1)C(=O)c1cnn(-c3ccccc3)c1C(F)(F)F)C(C)(C)CCC2(C)C (stereo not drawn) [Compound 118]
remaining activity at 10 µM [1]: 60%
remaining activity at 10 µM [2]: 62%
remaining activity at 10 µM [3]: 58%

Structure (SMILES): CC(=O)O[C@@H](C)C(=O)N(Cc1cc2c(cc1C)C(C)(C)CCC2(C)C)CC1CCC(CNC(=N)N)CC1 (stereo partly drawn) [Compound 119]
remaining activity at 10 µM [1]: 57%
remaining activity at 10 µM [2]: 57%
remaining activity at 10 µM [3]: 57%

Second part, the molecule after the results:

remaining activity at 10 µM [1]: 55%
remaining activity at 10 µM [2]: 53%
remaining activity at 10 µM [3]: 57%
Structure (SMILES): CC(=O)N(Cc1cc2c(cc1C)C(C)(C)CCC2(C)C)CC1CCC(CNC(=N)N)CC1 (stereo not drawn) [Compound 83]

remaining activity at 10 µM [1]: 48%
remaining activity at 10 µM [2]: 52%
remaining activity at 10 µM [3]: 44%
Structure (SMILES): Cc1cc2c(cc1CN(CC1CCC(CNC(=N)N)CC1)C(=O)c1ccc(Cl)nc1)C(C)(C)CCC2(C)C (stereo not drawn) [Compound 84]

remaining activity at 10 µM [1]: 51%
remaining activity at 10 µM [2]: 56%
remaining activity at 10 µM [3]: 45%
Structure (SMILES): N=C(N)NCC1CCC(CN(Cc2cc3c(cc2Cl)OCO3)C(=O)c2ccco2)CC1 (stereo not drawn) [Compound 86]

remaining activity at 10 µM [1]: 52%
remaining activity at 10 µM [2]: 57%
remaining activity at 10 µM [3]: 47%
Structure (SMILES): CCOc1cc(OCC)c(OCC)cc1CN(CC1CCC(CNC(=N)N)CC1)C(=O)c1ccco1 (stereo not drawn) [Compound 87]

remaining activity at 10 µM [1]: 57%
remaining activity at 10 µM [2]: 58%
remaining activity at 10 µM [3]: 56%
Structure (SMILES): CCCCN(CCCC)c1ccc(CN(CC2CCC(CNC(=N)N)CC2)C(=O)c2ccco2)cc1 (stereo not drawn) [Compound 88]

remaining activity at 10 µM [1]: 52%
remaining activity at 10 µM [2]: 44%
remaining activity at 10 µM [3]: 60%
Structure (SMILES): Cc1cc2c(cc1CN(CC1CCC(CNC(=N)N)CC1)C(=O)c1c(C)noc1C)C(C)(C)CCC2(C)C (stereo not drawn) [Compound 96]

remaining activity at 10 µM [1]: 58%
remaining activity at 10 µM [2]: 58%
remaining activity at 10 µM [3]: 58%
Structure (SMILES): Cc1cc2c(cc1CN(CC1CCC(CNC(=N)N)CC1)C(=O)c1ccc(C#N)cc1)C(C)(C)CCC2(C)C (stereo not drawn) [Compound 98]

remaining activity at 10 µM [1]: 60%
remaining activity at 10 µM [2]: 66%
remaining activity at 10 µM [3]: 54%
Structure (SMILES): Cc1cc2c(cc1CN(CC1CCC(CNC(=N)N)CC1)C(=O)Cc1ccccc1)C(C)(C)CCC2(C)C (stereo not drawn) [Compound 102]
